Laboratory results reported in US10301298B2, “Methods, compounds, and compositions for the treatment of angiotensin-related diseases” (University of Southern California, priority 2013, dated 2019).
Read-outs that look alike come from different tables or passages of the source.

Key:
AT1R = molecular target: T1, AT1R (Homo sapiens, UniProt P30556); assay: AT1R displacement assay with radiolabeled Ang II; format: binding; details: displacement of radiolabeled Ang II or analogs; read-out: EC50 displacing Ang II at the AT1 receptor
T1 sequence (P30556 1-359): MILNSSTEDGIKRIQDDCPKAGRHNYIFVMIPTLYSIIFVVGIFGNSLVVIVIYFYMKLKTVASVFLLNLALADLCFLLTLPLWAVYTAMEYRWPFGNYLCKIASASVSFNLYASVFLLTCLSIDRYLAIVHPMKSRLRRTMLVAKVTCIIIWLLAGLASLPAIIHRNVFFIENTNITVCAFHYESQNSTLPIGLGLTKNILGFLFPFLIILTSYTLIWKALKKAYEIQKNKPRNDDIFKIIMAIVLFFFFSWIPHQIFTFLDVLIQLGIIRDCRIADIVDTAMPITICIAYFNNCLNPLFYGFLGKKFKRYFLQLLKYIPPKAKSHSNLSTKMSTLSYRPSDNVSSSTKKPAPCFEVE
Protocol: Compound 7 was evaluated in vitro for its ability to compete with ratholabeled Ang II or analogs in a displacement assay for AT1R and AT2R receptors.

MDA MB 231 = assay: MTT cellular viability of MDA MB 231 breast cancer cell line; format: cell-based; details: for IC50: Homo sapiens, MDA-MB-231, MTT
Protocol: Compound 7 was evaluated for its ability to modulate cancer proliferation using MDA MB 231 breast cancer cell line. MDA MB 231 was treated with increasing concentration of Compound 7 ranged from 1×10^−12 to 1×10^−3 M, where the cells were incubated for 48 hours. After the incubation, cellular viability was evaluated using 3-(4,5-dimethylthiazol-2-yl)-2,5-diphenyltetrazolium bromide or MTT, where viable cells are able to reduce MTT to formazan and form an insoluble crystal. The solubilized crystal can be spectrometrically determine, where cellular viability is compared to cells treated with vehicle. The cellular viability of MDA MB 231 is summarized (FIG. 9). […] Rather at 1×10^−12 M ([…]) of Compound 7, the cellular proliferation was only 70% of vehicle treated.

db/db mice [1] = assay: Fasting blood glucose in db/db mice; format: in vivo
Protocol: Mice homozygous for the diabetes spontaneous mutation Lepr^db (BKS.Cg-Dock7^m+/+Lepr^db/J), which is an obese model of type 2 diabetes as a consequence of truncation of the leptin receptor, have verified plasma glucose levels >500 mg/dL prior to initiation of treatment. Food and water were available ad libitum, and all mice were kept on a 12-hour light/dark cycle. BKS.Cg-Dock7^m+/+Lepr^db/J mice and their heterozygous controls (n=6/group) were administered either saline (control), Ang-(1-7) (500 mcg/kg/day), or Compound 7 500 mcg/kg/day for two weeks by subcutaneous (SC) injection. Mice were fasted overnight prior to assessment of plasma glucose levels. Blood was taken from the saphenous vein and tested for glucose levels by a glucometer.

db/db mice [2] = assay: Organ weights (organmegaly) in db/db mice; format: in vivo; details: 14 days
Excerpt: Compound 7 (500 mcg/kg/day) or Ang(1-7) (500 mcg/kg/day) treated db/db mice were euphanized after 14 days of treatment. At necropsy, organs were collected for histology and weights. In FIG. 6A to 6C, hearts, left and right kidney normalized to tibia length were weight where db/db treated with Compound 7 were lower than db/db-controls (saline) and db/db treated with Ang(1-7).

[3] = Oral bioavailability in C57Bl/6 mice; format: in vivo; details: 500 μg/kg, oral gavage vs intravenous
Protocol: Compound 7 was evaluated for oral bioavailability at 500 μg/kg in C57Bl/6 mice. The drug was given by intravenous injection or by oral gavage and blood was collected at 0.5, 1, 2, 4, 8, 24 hours into heparinized tubes. The level of drug in the blood was measured by liquid chromatograph-mass spectrometry. Bioavailability was determined using the following ratio AUCIG/AUCIV (FIG. 10).

[4] = 500 mcg/kg/day, p<0.05 vs db/db controls

CCCCOC(=O)NS(=O)(=O)c1ccc(OC(F)(F)F)cc1-c1ccc(Cn2ccnc2)cn1 [Compound 7, butyl (2-(5-((1H-imidazol-1-yl)methyl)pyridin-2-yl)-4-(trifluoromethoxy)phenyl)sulfonylcarbamate]
EC50 (AT1R): > 10 µM
IC50 (MDA MB 231; 48 hours, read-out: IC50 (MDA MB 231 proliferation)): 0.058 µM
IC50 (MDA MB 231; 48 hours, read-out: IC50 (MDA MB 231 viability, Hill-slope analysis)): 0.0582 µM
effect on breast cancer cell proliferation (MDA MB 231; MDA MB 231, 1×10^−12 to 1×10^−3 M): did not increase breast cancer cell proliferation
cellular proliferation, % of vehicle treated (MDA MB 231; MDA MB 231, at 1×10^−12 M, 48 hours): 70%
reduction of peripheral glucose versus vehicle or Ang(1-7) treated mice (db/db mice [1]; 500 μg/kg/day, 14 days): > 40%
reduction of FBG in terms of the excess blood glucose over non-diabetic controls (db/db mice [1]; 500 mcg/kg/day SC, two weeks): 72%
fasting blood glucose (FBG) versus db/db mice treated with saline (db/db mice [1]; 500 mcg/kg/day SC, two weeks, p<0.05): significantly lower
right kidney weight (db/db mice [2]; 500 μg/kg/day): trended to be similar to heterozygous control
development of cardiomegaly (heart weight normalized to tibia length) (db/db mice [2]; [4]): prevent the development of cardiomegaly
development of left kidney hypertrophy (weight normalized to tibia length) (db/db mice [2]; [4]): prevent
oral bioavailability (AUCIG/AUCIV) [3]: 30%
